Test results: US20260240817A1, “COMPOSITIONS AND METHODS FOR TREATING CHARCOT-MARIE-TOOTH DISEASE” (priority 2023, published 2026)
“Also recorded” adds a separate entry of the source.

Tests used:
healthy volunteers = assay: Phase I (FIH) clinical trial, safety and tolerability in healthy volunteers; type: in vivo, human
Source text: Part A1 tested single doses of NMD670 in a double-blind, randomised, placebo-controlled, partial crossover and dose-escalating design in healthy male subjects (see the WHO International Clinicals Trials Registry Platform study reference NL8692). A total of nine dose levels were investigated in three cohorts of subjects. Each cohort consisted of nine subjects, each subject had three study sessions. Each subject received escalating doses of NMD670 on two occasions and placebo on one occasion, the order will be randomized in a cross-over fashion. Each dose level was randomized in a 6:3 ratio (active vs. placebo). See Table 10 for an overview of the randomization scheme.
Due to this temporary halt and partial unblinding of the study during dose level 7, a new randomization was necessary. After unblinding three subjects in dose level 7, the original randomization for dose 8 and 9 was changed in order to keep the study blinded. […] Therefore, for the remaining 2 doses, a full cross-over design investigating one previously tested dose level was used. The 9 subjects in cohort 3 were randomized to receive the study drug in level 8 and placebo in level 9, or vice versa. To determine the effect of food on the exposure of single oral doses of NMD670, dose level 5 was administered in both the fasted and fed condition. Subjects who received dose level 5 returned for a fourth visit in which they received dose level 5 (or matching placebo) in the fed condition, in the same randomization as the chosen dose level in the fasted condition.
Part A2 of the study investigated the safety, tolerability and pharmacokinetics of NMD670 in 8 healthy female subjects of non-childbearing potential, in a randomized, double-blind, placebo-controlled single dose administration of NMD670. Subjects received 800 mg NMD670. Subjects were randomized in a 6:2 ratio (active vs. placebo).
The following endpoints were determined at time points indicated in the Schedule of Assessments. • Serious adverse events (SAEs) and adverse events (AEs) were collected throughout the study at every study visit. • Concomitant medication • Clinical laboratory tests • Haematology • Chemistry • Urinalysis • Coagulation • Vital signs • Pulse Rate (bpm) • Systolic blood pressure (mmHg) • Diastolic blood pressure (mmHg) • Respiratory rate • ECG • Heart Rate (HR) (bpm), PR, QRS, QT, QTcF • 24-hour Holter recording • Hand grip dynamometry • Grip release profile; time profile from 100% maximum voluntary contraction (MVC) to 5% of the 100% MVC
(§1) NMD670 has been tested in a Phase 1, FIH, single ascending and multiple ascending dose study in healthy volunteers. […] In addition, the Phase 1 FIH study also tested single doses of 400 mg and 1200 mg in 12 MG patients.

[1] = system: soleus muscle fibres from CMT2D mice; type: cell-based, mouse; conditions: 10 μM NMD670 added to CMT2D fibres, μ-Conotoxin-treated; vs before addition; 12, 30, 80 Hz trains
mouse model of CMT1A [2] = assay: In vivo hind leg force (torque) on sciatic nerve stimulation in mouse model of CMT1A
Procedure: (§2) Male and female mice (Jacson Laboratory Strain #:030052) approx. 6-7 months of age at time of study start were used. These genetically modified mice are used as a disease model to study Charcot Marie Tooth (CMT) disease type 1A (CMT1A).
(§3) The sodium salt of NMD670 was dissolved in phosphate buffered saline (PBS) to a dose volume of 1 mg/mL. The entire amount of dose-solution was then transferred to a vial labelled A or B (for blinding purposes). The vehicle control solution was PBS and this was transferred to a vial labelled A or B (for blinding purposes). Compound was dosed IP at a volume of 10 mL/kg, from a 1 mg/mL dose solution.
Animal was sedated (isoflurane inhalation 2% in ambient air) and prepared for assessment of force production from the hind leg, via electrical stimulation of the sciatic nerve in a static position. Stimulation electrodes were inserted at the sciatic nerve, and test pulses of low current amplitude were used to adjust position of all electrodes until a stable reproducible signal was achieved twice. The force resulting from supramaximal electrical stimulation of the supplying motor nerve was recorded from a foot-pad moved by the foot/paw of the animal. See table Table 21 for detailed stimulation protocol.
(§4) NMD670 or vehicle was administered by IP injection at a volume of 10 mL/kg from a 1 mg/mL dose solution while sedated in the EMG measurement set up. 10 to 15 minutes was allowed to elapse before next step was initiated.
The animal remained sedated and prepared for assessment of force production from the hind leg, via electrical stimulation of the sciatic nerve in a static position. Stimulation electrodes were inserted at the sciatic nerve, and test pulses of low current amplitude were used to adjust position of all electrodes until a stable reproducible signal was achieved twice. The force resulting from supramaximal electrical stimulation of the supplying motor nerve was recorded from a foot-pad moved by the foot/paw of the animal. See Table 21 for detailed stimulation protocol.
(§5) Each mouse was tested prior to intervention with test article, and then tested after IP injection of 10 mg/kg NMD670 or vehicle (PBS). A washout period was then allowed (48 hours), and the mouse was subjected to the same test, but receiving the opposite treatment to that on the first day. All mice thus received both vehicle and NMD670, in a randomized order (FIG. 6).

mouse model of CMT1A [3] = assay: Stimulated EMG (CMAP decrement) in mouse model of CMT1A; type: in vivo
Procedure: as §2, §3, §4, §5

[4] = Tablet dissolution (USP2 paddles, pH 6.8); type: physicochemical; conditions: immediate release film-coated tablets; after a maximum of 60 minutes; USP2 paddles 75 RPM, 37° C., 900 ml pH 6.8
Procedure: Tablet dissolution was determined as follows. […] Dissolution Media pH 6.8 was prepared by dissolving 27.3g Na2HPO4·2H2O and 4.9 g Citric Acid in 1 L Milli-Q water. The pH was measured and adjusted if necessary to pH 6.8. 900 mL of dissolution media pH 6.8 was accurately transferred into each dissolution vessel. The apparatus was assembled, and the dissolution media was heated to 37° C.±0.5° C. The T=0 point was extracted from each vessel prior to dropping the tablets into the dissolution vessels. One tablet was gently dropped into each dissolution vessel, and rotation of the paddle was immediately started. Samples were taken that the sample extraction timepoints and analysed using the HPLC method.

MG patients = assay: Phase 1 FIH study, single doses in MG patients; type: in vivo, human
Procedure: as §1

[5] = system: soleus muscle fibres from CMT2D mice; assay: Intracellular recordings of action potentials during repeated motor nerve stimulation, isolated soleus nerve-muscle preparations; type: cell-based, mouse

## C[C@H](Oc1ccc(Br)cc1-c1ccon1)C(=O)O [NMD670, (2S)-2-[4-bromo-2-(1,2-oxazol-3-yl)phenoxy]propanoic acid]
Healthy volunteers; 400 mg BID, healthy volunteers
  tolerability of maximum repeated dose: well tolerated
Healthy volunteers; 1200 mg once a day, mild in intensity, resolved spontaneously within a few hours
  healthy subjects with myotonic symptoms: 2
Healthy volunteers; 1600 mg single dose, one healthy subject, spontaneously and fully resolved within hours
  adverse event of myotonia, intensity: moderate in intensity; also recorded: moderate severity
Healthy volunteers; Phase 1, healthy subjects, single doses 50 to 1600 mg
  serious or severe adverse effects: No serious or severe adverse effects; also recorded: No serious adverse reactions
Healthy volunteers; Phase 1 FIH study, TEAE incidence similar between NMD670 and placebo
  overall safety and tolerability: safe and well tolerated
Healthy volunteers; Phase 1 Part A
  subject discontinuations: no subject discontinuations
Healthy volunteers; Phase 1 Part A, 35 subjects
  total AEs reported: 70
Healthy volunteers; Phase 1 Part A, of 70 AEs, number (%)
  AEs at least possibly drug related: 47 (67%)
Healthy volunteers; Phase 1 clinical study, not considered clinically significant
  serum uric acid: dose-dependent decrease
Healthy volunteers; single doses, 1200 mg and 1600 mg
  transient myotonia, relation to dose: reported at the highest dose levels tested
[1]
  EPP amplitude: significant increase; also recorded: small non-significant increase
Mouse model of CMT1A [2]; 10 mg/kg IP, compared to Vehicle
  ability to sustain force during stimulated contraction: markedly improved
Mouse model of CMT1A [2]; 10 mg/kg intra peritoneally, compared to vehicle treatment
  stimulated force: significantly increase
Mouse model of CMT1A [2]; 1 Hz, 10 mg/kg IP, vehicle −0.37
  Change in Torque (peak stimulated force, before to after treatment): 0.95 mN*m
Mouse model of CMT1A [2]; 15 Hz, 10 mg/kg IP, vehicle −0.46
  Change in Torque (peak stimulated force, before to after treatment): 0.59 mN*m
Mouse model of CMT1A [2]; 30 Hz, 10 mg/kg IP, vehicle −0.95
  Change in Torque (peak stimulated force, before to after treatment): 0.49 mN*m
Mouse model of CMT1A [2]; 60 Hz, 10 mg/kg IP
  increase of peak muscle force: 1.13 mNm
Mouse model of CMT1A [2]; 60 Hz, 10 mg/kg IP, vehicle −1.49
  Change in Torque (peak stimulated force, before to after treatment): 1.13 mN*m
Mouse model of CMT1A [2]; 60 Hz, 10 mg/kg IP, vehicle −1.5
  Change in Fade (before to after treatment): 2.2%
Mouse model of CMT1A [2]; 120 Hz, 10 mg/kg IP
  increase of peak muscle force: 1.67 mNm
Mouse model of CMT1A [2]; 120 Hz, 10 mg/kg IP, vehicle −1.36
  Change in Torque (peak stimulated force, before to after treatment): 1.67 mN*m
Mouse model of CMT1A [2]; 120 Hz, 10 mg/kg IP, vehicle −14.1
  Change in Fade (before to after treatment): 8.1%
Mouse model of CMT1A [2]; 200 Hz, 10 mg/kg IP
  improvement of ability to sustain force: 18.3 % point
Mouse model of CMT1A [2]; 200 Hz, 10 mg/kg IP, vehicle −1.42
  Change in Torque (peak stimulated force, before to after treatment): 1.90 mN*m
Mouse model of CMT1A [2]; 200 Hz, 10 mg/kg IP, vehicle −24.1
  Change in Fade (before to after treatment): 18.3%
Mouse model of CMT1A [3]; 10 mg/kg IP, n=8
  CMAP decrement, NMD670 vs vehicle group after treatment: not significantly different
Mouse model of CMT1A [3]; 40 Hz, 10 mg/kg IP (sodium salt in PBS), vehicle 8.6
  recovery of CMAP decrement after intervention: 15.2 % point
[4]
  NMD670 released from the tablets: Not less than 80%
MG patients; patients with MG, single doses of 400 mg and 1200 mg
  myotonia: not observed
MG patients; single dose of 400 mg
  symptoms of MG: statistically significant and clinically relevant improvements of symptoms
[5]; 12 Hz, after 10 μM NMD670, 3/47 fibres (before 6/60, 10%)
  fibres unable to sustain action potential generation for the entire stimulus train: 6,4%
[5]; 12 Hz, after addition of 10 μM NMD670 (before 3.6)
  average action potential excitation failure: 1.9%
[5]; 30 Hz, after 10 μM NMD670, 3/47 fibres (before 9/60, 15%)
  fibres unable to sustain action potential generation for the entire stimulus train: 6.4%
[5]; 30 Hz, after addition of 10 μM NMD670 (before 4.9)
  average action potential excitation failure: 0.8%
[5]; 80 Hz, after 10 μM NMD670, 20/47 fibres (before 33/60, 55%)
  fibres unable to sustain action potential generation for the entire stimulus train: 42.5%
[5]; 80 Hz, after addition of 10 μM NMD670 (before 29.6)
  average action potential excitation failure: 20.4%
